Experimental data taken from patent US9908912B2, “Triclosan derivatives and uses thereof” (priority 2012, dated 2018).
Converted amounts (≈) assume the structure as drawn.

Tests used:
Ent. faecium = assay: MIC in Nutrient Agar; format: cell-based, Enterococcus faecium; settings: Nutrient Agar containing 0.1 μg/ml of inducer; 37° C., 24 hours
Method: (§1) The triclosan-glycosides were added to Nutrient Agar (Oxoid CM0003; Thermofisher Scientific) and organisms were transferred onto the plates surface using a multi-point inoculation device (Oxoid Cathra, Thermofisher Scientific). The latter is essentially a metal plate containing a number of needles. Each needle tip (usually 36 per plate) dips into an organism suspension (in phosphate buffered saline; PBS) and the needles are then moved over the agar plate and lowered onto its surface. In this way the growth of colonies of up to 36 different organisms can be observed on one plate.
(§2) Nutrient Agar No. 2 was prepared according to the manufacturers instructions, autoclaved and cooled to 50° C. Test compounds were then added as filter sterilised solutions (50:50 deionised water:ethanol), to give final concentrations from 256 μg/ml to 0 μg/ml in doubling dilutions. […] The mixtures were swirled then four plates (25 ml molten agar) were poured for each concentration. Plates were dried in a laminar flow cabinet then inoculated with overnight cultures of organisms that had been decimally diluted twice in sterile saline solution (approximately 10^7 cfu/ml) using a multi-point inoculator. Plates were then incubated at 37° C. for 24 hours. MICs were determined as the concentration at which no growth was observed.

E. hermanii ATCC 33650 = assay: MIC in Nutrient Broth No. 2; format: cell-based, Escherichia hermanii; settings: Nutrient Broth No. 2
Method: (§3) Bacteria species as indicated in Table 1 were incubated for approximately 24 hours at 37° C.
(§4) The tests were repeated with the addition of inducers. Methyl glycoside was the main inducer used, but other suitable inducers include isopropyl-β-D-thiogalactopyranoside, p-nitrophenyl-α-L-arabinopyranoside and p-nitrophenyl-β-D-xylopyranoside. Concentration of inducer in all cases was 100 μg/ml.

S. haemolyticus = assay: MIC in Nutrient Agar; format: cell-based, Staphylococcus haemolyticus; settings: Nutrient Agar containing 0.1 μg/ml of inducer; 37° C., 24 hours
Method: as §1, §2

Bacillus subtilis = assay: MIC in Nutrient Agar; format: cell-based; settings: Nutrient Agar containing 0.1 μg/ml of inducer; 37° C., 24 hours
Method: as §1, §2

Hafnia alvei = assay: MIC in Nutrient Agar; format: cell-based; settings: Nutrient Agar containing 0.1 μg/ml of inducer; 37° C., 24 hours
Method: as §1, §2

Bacillus cereus = assay: MIC in Nutrient Agar; format: cell-based; settings: Nutrient Agar containing 0.1 μg/ml of inducer; 37° C., 24 hours
Method: as §1, §2

Salmonella = assay: MIC in Nutrient Agar; format: cell-based; settings: 11 strains; Nutrient Agar containing 0.1 μg/ml of inducer; 37° C., 24 hours
Method: as §1, §2

Ps. aeruginosa = assay: MIC in Nutrient Agar; format: cell-based; settings: Nutrient Agar containing 0.1 μg/ml of inducer; 37° C., 24 hours
Method: as §1, §2

S. aureus = assay: MIC in Nutrient Agar; format: cell-based, Staphylococcus aureus; settings: 8 strains; Nutrient Agar containing 0.1 μg/ml of inducer; 37° C., 24 hours
Method: as §1, §2

S. saprophyticus = assay: MIC in Nutrient Agar; format: cell-based, Staphylococcus saprophyticus; settings: Nutrient Agar containing 0.1 μg/ml of inducer; 37° C., 24 hours
Method: as §1, §2

Str. pneumoniae = assay: MIC in Nutrient Agar; format: cell-based, Streptococcus pneumoniae; settings: Nutrient Agar containing 0.1 μg/ml of inducer; 37° C., 24 hours
Method: as §1, §2

Ser. marcescens = assay: MIC in Nutrient Agar; format: cell-based, Serratia marcescens; settings: Nutrient Agar containing 0.1 μg/ml of inducer; 37° C., 24 hours
Method: as §1, §2

Strep. viridans OCC 234 = assay: MIC in Nutrient Broth No. 2; format: cell-based, Streptococcus viridans; settings: Nutrient Broth No. 2
Method: as §3, §4

Str. viridans = assay: MIC in Nutrient Agar; format: cell-based, Streptococcus viridans; settings: Nutrient Agar containing 0.1 μg/ml of inducer; 37° C., 24 hours
Method: as §1, §2

Kleb. pneumoniae = assay: MIC in Nutrient Agar; format: cell-based, Klebsiella pneumoniae; settings: Nutrient Agar containing 0.1 μg/ml of inducer; 37° C., 24 hours
Method: as §1, §2

[1] = tested on: Staph. saprophyticus ATCC 15305; assay: MIC in Nutrient Broth No. 2; format: cell-based, Staphylococcus saprophyticus; settings: Nutrient Broth No. 2
Method: as §3, §4

Staph. aureus = assay: MIC in Nutrient Broth No. 2; format: cell-based, Staphylococcus aureus; settings: 8 strains, Nutrient Broth No. 2
Method: as §3, §4

[2] = tested on: Kleb. pneumoniae ATCC 10031; assay: MIC in Nutrient Broth No. 2; format: cell-based, Klebsiella pneumoniae; settings: Nutrient Broth No. 2
Method: as §3, §4

[3] = tested on: Strep. pneumoniae ATCC 6305; assay: MIC in Nutrient Broth No. 2; format: cell-based, Streptococcus pneumoniae; settings: Nutrient Broth No. 2
Method: as §3, §4

Ent. cloacae ATCC 13047 = assay: MIC in Nutrient Broth No. 2; format: cell-based, Enterobacter cloacae; settings: Nutrient Broth No. 2
Method: as §3, §4

Kleb. aerogenes = assay: MIC in Nutrient Agar; format: cell-based, Klebsiella aerogenes; settings: Nutrient Agar containing 0.1 μg/ml of inducer; 37° C., 24 hours
Method: as §1, §2

[4] = tested on: Strep. pyogenes ATCC 19615; assay: MIC in Nutrient Broth No. 2; format: cell-based, Streptococcus pyogenes; settings: Nutrient Broth No. 2
Method: as §3, §4

Ent. cloacae = assay: MIC in Nutrient Agar; format: cell-based, Enterobacter cloacae; settings: Nutrient Agar containing 0.1 μg/ml of inducer; 37° C., 24 hours
Method: as §1, §2

[5] = tested on: Staph. haemolyticus OCC 2223; assay: MIC in Nutrient Broth No. 2; format: cell-based, Staphylococcus haemolyticus; settings: Nutrient Broth No. 2
Method: as §3, §4

C. freundii = assay: MIC in Nutrient Agar; format: cell-based, Citrobacter freundii; settings: Nutrient Agar containing 0.1 μg/ml of inducer; 37° C., 24 hours
Method: as §1, §2

Cr. sakazakii = assay: MIC in Nutrient Agar; format: cell-based, Cronobacter sakazakii; settings: Nutrient Agar containing 0.1 μg/ml of inducer; 37° C., 24 hours
Method: as §1, §2

[6] = tested on: Strep. agalactiae OCC 182; assay: MIC in Nutrient Broth No. 2; format: cell-based, Streptococcus agalactiae; settings: Nutrient Broth No. 2
Method: as §3, §4

[7] = tested on: Crono. sakazakii ATCC 29544; assay: MIC in Nutrient Broth No. 2; format: cell-based, Cronobacter sakazakii; settings: Nutrient Broth No. 2
Method: as §3, §4

Ent. aerogenes = assay: MIC in Nutrient Agar; format: cell-based, Enterobacter aerogenes; settings: Nutrient Agar containing 0.1 μg/ml of inducer; 37° C., 24 hours
Method: as §1, §2

Aer. hydrophila = assay: MIC in Nutrient Agar; format: cell-based, Aeromonas hydrophila; settings: Nutrient Agar containing 0.1 μg/ml of inducer; 37° C., 24 hours
Method: as §1, §2

Str. agalactiae = assay: MIC in Nutrient Agar; format: cell-based, Streptococcus agalactiae; settings: Nutrient Agar containing 0.1 μg/ml of inducer; 37° C., 24 hours
Method: as §1, §2

[8] = tested on: Kleb. aerogenes NCTC 88167; assay: MIC in Nutrient Broth No. 2; format: cell-based, Klebsiella aerogenes; settings: Nutrient Broth No. 2
Method: as §3, §4

Ent. faecalis = assay: MIC in Nutrient Agar; format: cell-based, Enterococcus faecalis; settings: Nutrient Agar containing 0.1 μg/ml of inducer; 37° C., 24 hours
Method: as §1, §2

OC[C@H]1O[C@@H](Oc2cc(Cl)ccc2Oc2ccc(Cl)cc2Cl)[C@H](O)[C@@H](O)[C@@H]1O [β-D-Glucoside, triclosan-β-D-glucopyranoside]
MIC (Ent. faecium): >256 µg/mL
MIC (E. hermanii ATCC 33650; with inducer 100 μg/ml): 2 µg/mL (≈ 4.43 µM)
MIC (E. hermanii ATCC 33650; without inducer): 16 µg/mL (≈ 35.4 µM)
MIC (S. haemolyticus): 16 µg/mL (≈ 35.4 µM)
MIC (Bacillus subtilis): 256 µg/mL (≈ 567 µM)
MIC (Hafnia alvei): 8 µg/mL (≈ 17.7 µM)
MIC (Bacillus cereus): 256 µg/mL (≈ 567 µM)
MIC (Salmonella): 16 to 128 µg/mL
MIC (Ps. aeruginosa): >256 µg/mL
MIC (S. aureus): 4 to 8 µg/mL
MIC (S. saprophyticus): 32 µg/mL (≈ 70.8 µM)
MIC (Str. pneumoniae): 128 µg/mL (≈ 283 µM)
MIC (Ser. marcescens): >256 µg/mL
MIC (Strep. viridans OCC 234; with inducer 100 μg/ml): 128 µg/mL (≈ 283 µM)
MIC (Strep. viridans OCC 234; without inducer): 256 µg/mL (≈ 567 µM)
MIC (Str. viridans): 256 µg/mL (≈ 567 µM)
MIC (Kleb. pneumoniae): 4 µg/mL (≈ 8.86 µM)
MIC ([1]; with inducer 100 μg/ml): 8 µg/mL (≈ 17.7 µM)
MIC ([1]; without inducer): 64 µg/mL (≈ 142 µM)
MIC (Staph. aureus; with inducer 100 μg/ml): 0.5 to 2 µg/mL
MIC (Staph. aureus; without inducer): 4 to 8 µg/mL
MIC ([2]; with inducer 100 μg/ml): 0.5 µg/mL (≈ 1.11 µM)
MIC ([2]; without inducer): 0.5 µg/mL (≈ 1.11 µM)
MIC ([3]; with inducer 100 μg/ml): 64 µg/mL (≈ 142 µM)
MIC ([3]; without inducer): 128 µg/mL (≈ 283 µM)
MIC (Ent. cloacae ATCC 13047; with inducer 100 μg/ml): 1 µg/mL (≈ 2.21 µM)
MIC (Ent. cloacae ATCC 13047; without inducer): 16 µg/mL (≈ 35.4 µM)
MIC (Kleb. aerogenes): 32 µg/mL (≈ 70.8 µM)
MIC ([4]; with inducer 100 μg/ml): 16 µg/mL (≈ 35.4 µM)
MIC ([4]; without inducer): 32 µg/mL (≈ 70.8 µM)
MIC (Ent. cloacae): 16 µg/mL (≈ 35.4 µM)
MIC ([5]; with inducer 100 μg/ml): 0.5 µg/mL (≈ 1.11 µM)
MIC ([5]; without inducer): 16 µg/mL (≈ 35.4 µM)
MIC (C. freundii): 64 µg/mL (≈ 142 µM)
MIC (Cr. sakazakii): 32 µg/mL (≈ 70.8 µM)
MIC ([6]; with inducer 100 μg/ml): 128 µg/mL (≈ 283 µM)
MIC ([6]; without inducer): 256 µg/mL (≈ 567 µM)
MIC ([7]; with inducer 100 μg/ml): 8 µg/mL (≈ 17.7 µM)
MIC ([7]; without inducer): 64 µg/mL (≈ 142 µM)
MIC (Ent. aerogenes): 32 µg/mL (≈ 70.8 µM)
MIC (Aer. hydrophila): >256 µg/mL
MIC (Str. agalactiae): >256 µg/mL
MIC ([8]; with inducer 100 μg/ml): 4 µg/mL (≈ 8.86 µM)
MIC ([8]; without inducer): 32 µg/mL (≈ 70.8 µM)
MIC (Ent. faecalis): >256 µg/mL

OC[C@H]1O[C@H](Oc2cc(Cl)ccc2Oc2ccc(Cl)cc2Cl)[C@H](O)[C@@H](O)[C@H]1O [α-D-Galactoside, triclosan-α-D-galactopyranoside]
MIC (Ent. faecium): >256 µg/mL
MIC (E. hermanii ATCC 33650; with inducer 100 μg/ml): 32 µg/mL (≈ 70.8 µM)
MIC (E. hermanii ATCC 33650; without inducer): 32 µg/mL (≈ 70.8 µM)
MIC (S. haemolyticus): 8 µg/mL (≈ 17.7 µM)
MIC (Bacillus subtilis): 128 µg/mL (≈ 283 µM)
MIC (Hafnia alvei): 4 µg/mL (≈ 8.86 µM)
MIC (Bacillus cereus): >256 µg/mL
MIC (Ps. aeruginosa): >256 µg/mL
MIC (S. aureus): 4 to 8 µg/mL
MIC (S. saprophyticus): 32 µg/mL (≈ 70.8 µM)
MIC (Str. pneumoniae): 256 µg/mL (≈ 567 µM)
MIC (Ser. marcescens): >256 µg/mL
MIC (Strep. viridans OCC 234; with inducer 100 μg/ml): >256 µg/mL
MIC (Strep. viridans OCC 234; without inducer): >256 µg/mL
MIC (Str. viridans): >256 µg/mL
MIC (Kleb. pneumoniae): 16 µg/mL (≈ 35.4 µM)
MIC ([1]; with inducer 100 μg/ml): 64 µg/mL (≈ 142 µM)
MIC ([1]; without inducer): 64 µg/mL (≈ 142 µM)
MIC (Staph. aureus; with inducer 100 μg/ml): 8 to 16 µg/mL
MIC (Staph. aureus; without inducer): 8 to 16 µg/mL
MIC ([2]; with inducer 100 μg/ml): 1 µg/mL (≈ 2.21 µM)
MIC ([2]; without inducer): 1 µg/mL (≈ 2.21 µM)
MIC ([3]; with inducer 100 μg/ml): 256 µg/mL (≈ 567 µM)
MIC ([3]; without inducer): 128 µg/mL (≈ 283 µM)
MIC (Ent. cloacae ATCC 13047; with inducer 100 μg/ml): 16 µg/mL (≈ 35.4 µM)
MIC (Ent. cloacae ATCC 13047; without inducer): 32 µg/mL (≈ 70.8 µM)
MIC (Kleb. aerogenes): 32 µg/mL (≈ 70.8 µM)
MIC ([4]; with inducer 100 μg/ml): 256 µg/mL (≈ 567 µM)
MIC ([4]; without inducer): 256 µg/mL (≈ 567 µM)
MIC (Ent. cloacae): 32 µg/mL (≈ 70.8 µM)
MIC ([5]; with inducer 100 μg/ml): 32 µg/mL (≈ 70.8 µM)
MIC ([5]; without inducer): 16 µg/mL (≈ 35.4 µM)
MIC (C. freundii): 64 µg/mL (≈ 142 µM)
MIC (Cr. sakazakii): 32 µg/mL (≈ 70.8 µM)
MIC ([6]; with inducer 100 μg/ml): >256 µg/mL
MIC ([6]; without inducer): >256 µg/mL
MIC ([7]; with inducer 100 μg/ml): 64 µg/mL (≈ 142 µM)
MIC ([7]; without inducer): 128 µg/mL (≈ 283 µM)
MIC (Ent. aerogenes): 64 µg/mL (≈ 142 µM)
MIC (Aer. hydrophila): >256 µg/mL
MIC (Str. agalactiae): >256 µg/mL
MIC ([8]; with inducer 100 μg/ml): 64 µg/mL (≈ 142 µM)
MIC ([8]; without inducer): 32 µg/mL (≈ 70.8 µM)
MIC (Ent. faecalis): >256 µg/mL
